Laboratory results as given in US9884037B2, “Pharmaceutical composition containing 8 triglycerides, and preparations and use thereof” (ZHEJIANG KANGLAITE GROUP CO., LTD., priority 2014, dated 2018).
Values after ≈ are worked out from the molar mass of the structure shown.

How the values were obtained:
NK cells [1] = test: Activity of NK cells in mice bearing cancer (L1210); format: in vivo, DBA/2 mice; details: 20 mg/kg, iv × 7, mice bearing L1210
Protocol: Each of 60 DBA/2 mice was inoculated subcutaneously with 1×10^4 L1210 leukemia cells of mice. Next day, the mice were grouped randomly into 6 groups (10 mice per group): Lentinan 20 mg/kg (positive control), the injection of the invention (6.25 ml/kg, 12.5 ml/kg and 25 ml/kg), solvent control and NS control. Animals were administered, i.v., for 7 days, then sacrificed. Spleens were picked up in aseptic condition. Splenocytes were prepared and adjusted into 1×10^6/ml. The activity of NK cells was detected by using the inhibition on ^3H-TdR incorporation. To wells of a 96 well microplate were added splenocytes cells (effector cells) 100 μl/well, YAC-1 cells (target cells, 1×10^4 cells/ml) 100 μl/well and ^3H-TdR 0.5 μci/well, in triplicate. After being incubated in a 37° C. incubator under 5% CO2 for 24 h, cells were collected, and CPM values were determined. The specific percentage inhibition (Pi), indicating the activity of NK cells, was calculated according to the above formula.

[2] = test system: splenocytes of mice bearing L1210 leukemia cells; test: Splenic lymphopoiesis in mice bearing L1210 leukemia cells; format: in vivo, DBA/2 mice; details: 20 mg/kg, iv × 7, mice bearing L1210
Protocol: Each of 60 DBA/2 mice was inoculated subcutaneously with 1×10^4 L1210 leukemia cells of mice. Next day, the mice were grouped randomly into 6 groups (10 mice per group): Lentinan 20 mg/kg, the injection of the invention (6.25 ml/kg, 12.5 ml/kg and 25 ml/kg), solvent control and NS control. Animals were administered, i.v., for 7 days, then sacrificed. Spleens were picked up in aseptic condition. Spleens were homogenized and splenocytes were counted and adjusted into 1×10^7/ml. Cells (100 μl/well) and medium (100 μl/well) were added into wells of a 96 well microplate in triplicate. The 96 well microplate was incubated in a 37° C. incubator under 5% CO2 for 48 h. Then, ^3H-TdR (0.5 μci/well) was added and the incubation was continued for 20 h. Cells were collected, and CPM values were determined and compared with control groups. […] Lentinan has also shown immuno-enhancement effect.

IL-2 = test: Production of IL-2 in mice bearing cancer (L1210), IL-2 dependent CTLL cell strain; format: in vivo, DBA/2 mice; details: 20 mg/kg, iv × 7, mice suffering from L1210 leukemia
Protocol: Each of 60 DBA/2 mice was inoculated subcutaneously with 1×10^4 L1210 leukemia cells of mice. Next day, the mice were grouped randomly into 6 groups (10 mice per group): Lentinan 20 mg/kg, the injection of the invention (6.25 ml/kg, 12.5 ml/kg and 25 ml/kg), solvent control and NS control. Animals were administered, i.v., for 7 days, then sacrificed. Spleens were picked up in aseptic condition. Splenocytes were prepared and adjusted into 1×10^7/ml. To each well of a 24 well plate were added splenocytes cells (2 ml) and Con A (5 μg/ml). After the plate was incubated in a 37° C. incubator under 5% CO2 for 24 h, the supernate was collected. The activity of IL-2 was determined in IL-2 dependent CTLL cell strain by using the method of ^3H-TdR incorporation.

NK cells [3] = test: Activity of natural killer cells (NK cells) in mice in vitro (inhibition on 3H-TdR incorporation, YAC-1 target cells); format: cell-based, C57BL/6 mice; details: 100 μl; for CPM (x ± SD): Splenocytes:YAC-1=100:1, 24 h
Protocol: Method: The activity of NK cells were detected by the inhibition on ^3H-TdR incorporation.
Spleens were picked up from C57BL/6 mice in aseptic condition. Splenocytes, as effector cells, were adjusted to 1×10^6 cells/ml. YAC-1 cells, target cells, which have been cultured for 24 h, were adjusted to 1×10^4 cells/ml. The cells were added into wells of a 96 well microplate (100 μl/well). The experiment groups were as follows: the injection of the invention in four concentrations, lentinan (positive control group) in four concentrations, corresponding solvent (blank control I) and medium (blank control II). To each well of a 96 well microplate were added cells (Splenocytes: YAC-1=100:1) (100 μl), test sample (100 μl) and ^3H-TdR 0.5 μci/well. After being incubated in a 37° C. incubator under 5% CO2 for 24 h, cells were collected, and CPM values were determined. The specific percentage inhibition (Pi), indicating the activity of NK cells, was calculated according to the formula: Pi=(1−CPMExp./CPMcont.)×100%

Splenocytes = test: Splenic lymphopoiesis induced by ConA in mice in vitro (3H-TdR incorporation); format: cell-based, C57BL/6 mice; details: 100 μl
Protocol: Spleens were picked up from C57BL/6 mice in aseptic condition. Splenocytes were separated and the concentration of cells was adjusted to 1×10^7 cells/ml with RPMI 1640+15% FCS medium. The experiment groups were as follows: the injection of the invention in four concentrations, lentinan (positive control group) in four concentrations, corresponding solvent (blank control I) and medium (blank control II). 100 μl Cells, 100 μl solution of drug/control and 50 μl ConA were added in each well in triplicate. The 96 well microplate was incubated in a 37° C. incubator under 5% CO2 for 48 h. ^3H-TdR (0.5 μci/well) was added and the incubation was continued for 20 h. Cells were collected, and CPM values were determined in a liquid scintillation counter and compared with control groups. It is shown in the results (table 3) that the injection of the invention, as same as lentinan, has obviously facilitated the splenic lymphopoiesis in mice in vitro and the effect is linear dependent to the concentration.

[4] = test system: SMMC-7721 (human hepatic cancer cells); test: Inhibition on human tumor cell lines in MTT method in vitro; format: cell-based; details: SMMC-7721, MTT, 48 h
Excerpt: (§1) Experimental Materials and the Preparation Thereof: • (1) Cell lines: PANC-1 (human pancreatic cancer cells), SKOV3 (human ovarian cancer cells), MCF-7 (human breast cancer cells), Bcap-37 (human breast cancer cells), SMMC-7721 (human hepatic cancer cells), HepG-2 (human hepatic cancer cells), A549 (human lung cancer cells) and H460 (human lung cancer cells), storaged and passaged maintainably in Research and Evaluation Center for Pharmacology, Shanghai Institute of Pharmaceutical Industry; • (2) DMEM complete medium supplied with 10% newborn calf serum (GIBCO BRL), 1% of penicillin (100 U/mL)+streptomycin (100 μg/mL); • (3) 0.25% trypsin solution, purchased from Invitrogen Corp. and storaged at −20° C.; • (4) Phosphate buffer (PBS): NaCl 8 g, KCl 0.2 g, Na2HPO4 1.15 g and KH2PO4 0.2 g, dissolved in 1 L double-distilled water and autoclaved at 121° C. for 20 min, then storaged at 4° C.; • (5) MTT (AMRESCO) solution: 5 mg/ml in PBS; • (6) Formazan crystal dissolving solution: SDS 10 g, isobutanol 5 ml and concentrated hydrochloric acid 0.1 ml, dissolved in 100 ml of deionized double distilled water.
(§2) The inhibition effects of samples on the above-mentioned cell lines were detected by using MTT method. The specific procedures were as follows:
(§3) (1) Cell culture: (a) Storaged cells were taken out from the liquid nitrogen, thawed quickly in a 37° C. water bath, then aseptically transferred into 6 ml of cellular medium in a 10 ml centrifugal tube, and centrifuged at 1000 rpm for 5 min. The supernatant was discarded, then the precipitated cells were re-suspensed in 5-6 ml cellular media by pipetting and transferred into a flask in a 37° C. incubator for cell culture; (b) Next day, the flask was taken out from the incubator and the used medium was discarded, then the cells were incubated in 5-6 ml fresh medium in the 37° C. incubator; (c) On the third day, the flask was taken out from the incubator and the used medium was discarded, then 2-3 ml of PBS (pH7.4) was added into the flask with rocking for cleaning it and the used PBS was discarded. Such a cellular cleaning step was repeated once again. 3-5 drops of 0.25% trypsin solution were added into the flask with sloshing, thus well-distributed in it. The flask was capped and placed in a 37° C. incubator for about 3 min, and the separation of cells from the flask wall was observed under the microscope. […]
(§4) (4) Cells in a logarithmic growth stage were trypsinized and washed, then re-suspended in the medium containing 10% calf serum. The number of living cells was counted in Trypan blue dye exclusion method and cell suspensions were adjusted into a density of 2×10^5 cell/ml. […]

[5] = test system: Bcap-37 (human breast cancer cells); test: as above; format: cell-based; details: Bcap37, Bcap-37, MTT, 48 h
Excerpt: as §1, §2, §3, §4

[6] = test system: PANC-1 (human pancreatic cancer cells); test: as above; format: cell-based; details: PANC-1, MTT, 48 h
Excerpt: as §1, §2, §3, §4

[7] = test system: H460 (human lung cancer cells); test: as above; format: cell-based; details: NCI-H460, 48 h
Excerpt: as §1, §2, §3, §4

Molecule	CPM (x ± SD) (NK cells [1])	Pi (%) (activity of NK cells) (NK cells [1])	CPM (x ± SD) [2]	CPM (x ± SD) (production of IL-2) (IL-2)	Pi % (specific percentage inhibition, activity of NK cells) (NK cells [3]; (1:1) dilution)	CPM (x ± SD) (NK cells [3]; (1:1) dilution)	Pi % (specific percentage inhibition, activity of NK cells) (NK cells [3]; (1:2) dilution)	CPM (x ± SD) (NK cells [3]; (1:2) dilution)	Pi % (specific percentage inhibition, activity of NK cells) (NK cells [3]; (1:4) dilution)	CPM (x ± SD) (NK cells [3]; (1:4) dilution)	Pi % (specific percentage inhibition, activity of NK cells) (NK cells [3]; (stock solution))	CPM (x ± SD) (NK cells [3]; (stock solution))	CPM (x ± SD) (Splenocytes; (1:1) dilution)	CPM (x ± SD) (Splenocytes; (1:2) dilution)	CPM (x ± SD) (Splenocytes; (1:4) dilution)	CPM (x ± SD) (Splenocytes; (stock solution))	IC50 [4]	IC50 [5]	IC50 [6]	IC50 [7]
Lentinan	5660 ± 260 CPM	54.5%	7410 ± 770 CPM	2750 ± 123 CPM	33.5%	8130 ± 930 CPM	35.5%	7892 ± 995 CPM	54.5%	5544 ± 85 CPM	29.5%	8625 ± 1135 CPM	7700 ± 747 CPM	11025 ± 1133 CPM	11555 ± 1279 CPM	7420 ± 957 CPM				
CC(=O)O[C@H]1C(=O)[C@@]2(C)[C@H]([C@H](OC(=O)c3ccccc3)[C@]3(O)C[C@H](OC(=O)[C@H](O)[C@@H](NC(=O)c4ccccc4)c4ccccc4)C(C)=C1C3(C)C)[C@]1(OC(C)=O)CO[C@@H]1C[C@@H]2O [Taxol]																	0.41 µg/mL (≈ 0.48 µM)	0.28 µg/mL (≈ 0.328 µM)	0.44 µg/mL (≈ 0.515 µM)	0.49 µg/mL (≈ 0.574 µM)
